How the values were obtained:
Assay type in all cases: cell-based, human
TIMP-2 mRNA = experiment: Real time RT-PCR (Taqman) assay in HUVEC, Example 7; details: 10 μM; bFGF, VEGF and PMA; at 4 h
Method: (§1) Total RNA was extracted from HUVEC cultured in 3-D type I collagen gels for various times in 1× basal medium supplemented with 40 ng/ml bFGF, 40 ng/ml VEGF, […] PMA or the combination of PMA (80 nM), bFGF and VEGF (40 ng/mil each). […] For all mRNAs evaluated a sample of total RNA (100 ng) was added to a 50 μl RT-PCR reaction mixture according to the manufacturer's protocol (Roche Molecular Systems, Inc., Branchburg, N.J.). The thermal cycling conditions included 1 cycle at 48° C. for 30 min, 1 cycle at 95° C. for 10 min, 40 cycles at 95° C. for 15 s, at 60° C. for 1 min, and finally hold at 25° C. for 2 min. Standard curves for expression of each gene were generated by serial dilution of the total RNA isolated from U937 cells. […] Therefore, the relative mRNA expression of each gene was normalized to the level of GAPDH in the same RNA preparation.

MMP-2 mRNA = experiment: as above; details: 10 μM; 24 h; PMA or PMA with bFGF and VEGF
Method: as §1

MMP-9 mRNA = experiment: as above; details: 10 μM; 24 h; PMA or PMA with bFGF and VEGF
Method: as §1

TIMP-1 mRNA = experiment: as above; details: 10 μM; bFGF, VEGF and PMA; at 4 h or 24 h
Method: as §1

MMP-3 mRNA = experiment: as above
Method: as §1

HUVEC tube formation = experiment: Endothelial tube assay (number of tubes, three-dimensional collagen gels)
Method: In this model, endothelial cells are suspended in a three-dimensional collagen lattice of type I collagen and undergo rapid morphogenesis. Within 4 hr numerous vacuoles are observed in the majority of endothelial cells; at 24 hr the formation of tube-like structures can be observed and at 48 hr an interconnected network of tube-like structures is observed.
Collagen gels were formed by mixing together ice-cold gelatin solution (10× M199, H2O, 0.53M NaHCO3, 200 mM L-glutamine, type I collagen, 0.1M NaOH, 100:27.2:50:10:750:62.5 by volume) and cells in 1× basal medium at a concentration of 3×10^6 cells/ml at a ratio of 4 volumes gelatin solution: 1 volume of cells. After gelation at 37 for 30 min, the gels were overlaid with IX basal medium consisting of M199 supplemented with 1%FBS, 1× ITS, 2 mM L-glutamine, 50 μg/ml ascorbic acid, 26.5 mM NaHCO3, 100 U/ml penicillin and 100 U/mil streptomycin supplemented with 40 ng/ml BFGF, 40 ng/ml VEGF and 80 nM phorbol myristate acetate (PMA). All drugs were added to the IX basal medium immediately after gelation. To quantitate tube formation, the number of tubes per high power (20× field) was determined 48 hr after addition of the basal medium Five independent fields separated by 100 μm optical sections were assessed for each well. Cytotoxicity was assessed using an XTT kit from Boehringer Mannheim (Indianapolis, Ind.).

HUVEC proliferation = experiment: Proliferation assay (BrdU incorporation); details: type I collagen-coated surface, VEGF, bFGF and PMA, read-out: inhibition of endothelial cell (HUVEC) proliferation, IC50
Method: Cells were cultured in above medium in the presence of drugs or vehicle for 4 hr. 5 μl (100 μM) of 5′-bromo-2′-deoxyuridine (BrdU) was added in a final volume of 100 μl/well and cells were incubated for another 20 hr. BrdU incorporation was evaluated by an ELISA kit from Boehringer Mannheim (Indianapolis, Ind.).

Structure (SMILES): CCCCC/C=C/C=C1/C(=O)C=CC1C/C=C\CCCC(=O)O (stereo not drawn) [15d-PGJ2, 15-deoxy-delta^12,14-PGJ2]
- TIMP-2 mRNA levels compared to the vehicle treated group (TIMP-2 mRNA): reduced
- MMP-2 mRNA levels (MMP-2 mRNA): significant suppression
- MMP-9 mRNA levels (MMP-9 mRNA): significant suppression
- expression of TIMP-1 (TIMP-1 mRNA): did not increase
- MMP-3 mRNA levels (MMP-3 mRNA; HUVEC cultured with combination of bFGF, VEGF and PMA at 24 h): increased
- MMP-3 mRNA expression (MMP-3 mRNA; PMA-treated group): no effect
- effect on tube formation (FIG. 1B) (HUVEC tube formation; 10 μM, 48 hr): inhibitory effects
- IC50 (HUVEC tube formation; HUVEC in collagen gels with bFGF, VEGF and PMA, tubes counted at 48 hr, read-out: inhibition of tube formation, IC50): 2800 nM
- IC50 (HUVEC proliferation): 2400 nM
